{
  "source": "patent US9932637B2",
  "about": "“Genetic polymorphisms associated with cardiovascular disorders and drug response, methods of detection and uses thereof” (CELERA CORPORATION, priority 2003, dated 2018)",
  "test_system": "patients with prior myocardial infarction (CARE study)",
  "assay": "CARE: association of SNPs with pravastatin treatment in cardiovascular events prevention (logistic regression, odds ratio pravastatin vs placebo by genotype; Table 8)",
  "assay_type": "in vivo, human",
  "conditions": "for Fatal/Non-fatal Cerebrovascular Disease, Prava vs. Placebo Odds Ratio (95% CI): ABCA1 hCV2741051, All Patients; for 1st Stroke Occurred During CARE, n/total (%) / Any Report of Stroke During CARE, n/total (%) / Fatal/Non-fatal Cerebrovascular Disease, n/total (%) / Prava vs. Placebo Odds Ratio, 0 Rare Alleles / Prava vs. Placebo Odds Ratio, 1 Rare Alleles / Prava vs. Placebo Odds Ratio, 2 Rare Alleles / Odds ratio pravastatin vs placebo / Fatal CHD/Definite Non-fatal MI, n/total (%) / Hosp. for Unstable Angina, n/total (%) / Total Coronary Heart Disease Events, n/total (%): All Patients; for 1st Stroke Occurred During CARE, n/total (%) / Any Report of Stroke During CARE, n/total (%) / Fatal/Non-fatal Cerebrovascular Disease, n/total (%) / Fatal CHD/Definite Non-fatal MI, n/total (%) / Hosp. for Unstable Angina, n/total (%) / Total Coronary Heart Disease Events, n/total (%): Prava; for Catheterization, n/total (%): ABCC8 hCV600632, All Patients; for Catheterization, n/total (%) / Nonfatal MI (Probable/Definite), n/total (%) / Nonfatal MI (def & prob), n/total (%): Prava arm",
  "text": "In order to identify genetic markers associated with acute coronary events (e.g. MI, stroke, unstable angina, congestive heart failure, etc.) or response to statin treatment for the prevention of coronary events, samples from the Cholesterol and Recurrent Events (CARE) study (a randomized multicentral double-blinded trial on secondary prevention of acute coronary events with pravastatin) (Sacks et al., 1991, Am. J. Cardiol. 68: 1436-1446) were genotyped. A well-documented myocardial infarction (MI) was one of the enrollment criteria for entry into the CARE study. Patients were enrolled in the CARE trial from 80 participating study centers. […] Patients were randomized to receive either 40 mg of pravastatin once daily or a matching placebo. The primary endpoint of the trial was death from coronary heart disease and the median duration of follow-up was 5.0 years (range, 4.0 to 6.2 years). […] Secondary endpoints of other related cardiovascular or metabolic disease events, and changes in clinical variables were also recorded in pravastatin-treated and placebo groups. All individuals included in the study had signed a written informed consent form and the study protocol was approved by the respective Institutional Review Boards (IRBs).\nFor genotyping SNPs in CARE patient samples, DNA was extracted from blood samples using conventional DNA extraction methods such as the QIA-amp kit from Qiagen. Genotypes were obtained on an ABI PRISM® 7900HT Sequence Detection PCR system (Applied Biosystems, Foster City, Calif.) by kinetic allele-specific PCR, similar to the method described by Germer et al. (Germer S., Holland M. J., Higuchi R. 2000, Genome Res. 10: 258-266).\nStatistical analysis for association of SNPs with pravastatin treatment in cardiovascular events prevention (Table 8) was carried out using an overall logistic regression model that included an intercept, a parameter for the effect of a genotype containing two rare alleles versus a genotype containing no rare alleles, a parameter for the effect of a genotype containing one rare allele versus a genotype containing no rare alleles, a parameter for the effect of use of pravastatin versus the use of placebo, and parameters for the interaction effects between SNP genotypes and pravastatin use. The test of the overall model is a chi-square test with two degrees of freedom for analyses containing all three genotypes, and one degree of freedom for analyses containing two genotypes.\nEffect sizes were estimated through odds ratios (pravastatin group versus placebo) for carriers of each genotype (groups of 0, 1, and 2 minor allele carriers). The effect was considered to be significant if p-value for testing whether any of the interactions between SNP genotypes and pravastatin use were <0.05. […] Odds ratios less than one indicate that the specific SNP allele has a protective effect and odds ratios greater than one indicate that the specific SNP allele has an adverse effect.",
  "key": {"[1]": {"conditions": "ABCA1 hCV2741051, 1 Rare Allele, n/total 5/651"}, "[2]": {"conditions": "ABCA1 hCV2741051, 1st Stroke Occurred During CARE"}, "[3]": {"conditions": "ABCA1 hCV2741051, 2 Rare Alleles, n/total 2/127"}, "[4]": {"conditions": "ABCA1 hCV2741051, Any Report of Stroke During CARE"}, "[5]": {"conditions": "ADAMTS13 hCV11571465, All Patients, 0 Rare Alleles"}, "[6]": {"conditions": "ADAMTS13 hCV11571465, All Patients, 1 Rare Allele"}, "[7]": {"conditions": "ADAMTS13 hCV11571465, All Patients, 2 Rare Alleles"}, "[8]": {"conditions": "AGTR1 hCV3187716, Fatal CHD/Definite Non-fatal MI"}, "[9]": {"conditions": "AGTR1 hCV3187716, Hosp. for Unstable Angina"}, "[10]": {"conditions": "AGTR1 hCV3187716, Total Coronary Heart Disease Events"}},
  "data": [
    {"smiles": "CC[C@H](C)C(=O)O[C@H]1C[C@H](O)C=C2C=C[C@H](C)[C@H](CC[C@@H](O)C[C@@H](O)CC(=O)O)[C@H]21", "note": "[pravastatin]", "values": [
      {"measurement": "Fatal/Non-fatal Cerebrovascular Disease, Prava vs. Placebo Odds Ratio (95% CI)", "setting": "0 Rare Alleles", "result": 0.98},
      {"measurement": "Fatal/Non-fatal Cerebrovascular Disease, Prava vs. Placebo Odds Ratio (95% CI)", "setting": "1 Rare Alleles", "result": 0.43},
      {"measurement": "Fatal/Non-fatal Cerebrovascular Disease, Prava vs. Placebo Odds Ratio (95% CI)", "setting": "2 Rare Alleles", "result": 0.26},
      {"measurement": "1st Stroke Occurred During CARE, n/total (%)", "setting": "ABCA1 hCV2741051, 0 Rare Alleles, n/total 26/730", "result": "(3.6%)"},
      {"measurement": "Any Report of Stroke During CARE, n/total (%)", "setting": "ABCA1 hCV2741051, 0 Rare Alleles, n/total 27/730", "result": "(3.7%)"},
      {"measurement": "Fatal/Non-fatal Cerebrovascular Disease, n/total (%)", "setting": "ABCA1 hCV2741051, 0 Rare Alleles, n/total 51/730", "result": "(7.0%)"},
      {"measurement": "1st Stroke Occurred During CARE, n/total (%)", "setting": "[1]", "result": "(0.8%)"},
      {"measurement": "Any Report of Stroke During CARE, n/total (%)", "setting": "[1]", "result": "(0.8%)"},
      {"measurement": "Fatal/Non-fatal Cerebrovascular Disease, n/total (%)", "setting": "ABCA1 hCV2741051, 1 Rare Allele, n/total 18/651", "result": "(2.8%)"},
      {"measurement": "Prava vs. Placebo Odds Ratio, 0 Rare Alleles", "setting": "[2]", "result": 0.98},
      {"measurement": "Prava vs. Placebo Odds Ratio, 1 Rare Alleles", "setting": "[2]", "result": 0.26},
      {"measurement": "Prava vs. Placebo Odds Ratio, 2 Rare Alleles", "setting": "[2]", "result": 0.23},
      {"measurement": "1st Stroke Occurred During CARE, n/total (%)", "setting": "[3]", "result": "(1.6%)"},
      {"measurement": "Any Report of Stroke During CARE, n/total (%)", "setting": "[3]", "result": "(1.6%)"},
      {"measurement": "Fatal/Non-fatal Cerebrovascular Disease, n/total (%)", "setting": "ABCA1 hCV2741051, 2 Rare Alleles, n/total 3/127", "result": "(2.4%)"},
      {"measurement": "Prava vs. Placebo Odds Ratio, 0 Rare Alleles", "setting": "[4]", "result": 0.92},
      {"measurement": "Prava vs. Placebo Odds Ratio, 1 Rare Alleles", "setting": "[4]", "result": 0.21},
      {"measurement": "Prava vs. Placebo Odds Ratio, 2 Rare Alleles", "setting": "[4]", "result": 0.23},
      {"measurement": "Catheterization, n/total (%)", "setting": "0 Rare Alleles", "result": "(12.0%)"},
      {"measurement": "Catheterization, n/total (%)", "setting": "1 Rare Allele", "result": "(8.8%)"},
      {"measurement": "Catheterization, n/total (%)", "setting": "2 Rare Alleles", "result": "(10.2%)"},
      {"measurement": "Odds ratio pravastatin vs placebo", "setting": "ABCC8 hCV600632, Catheterization, 0 rare alleles", "result": 1.21},
      {"measurement": "Odds ratio pravastatin vs placebo", "setting": "ABCC8 hCV600632, Catheterization, 1 rare allele", "result": 0.55},
      {"measurement": "Odds ratio pravastatin vs placebo", "setting": "ABCC8 hCV600632, Catheterization, 2 rare alleles", "result": 0.81},
      {"measurement": "Nonfatal MI (Probable/Definite), n/total (%)", "setting": "[5]", "result": "(9.1%)"},
      {"measurement": "Nonfatal MI (def & prob), n/total (%)", "setting": "[5]", "result": "(9.1%)"},
      {"measurement": "Nonfatal MI (Probable/Definite), n/total (%)", "setting": "[6]", "result": "(10.3%)"},
      {"measurement": "Nonfatal MI (def & prob), n/total (%)", "setting": "[6]", "result": "(9.6%)"},
      {"measurement": "Nonfatal MI (Probable/Definite), n/total (%)", "setting": "[7]", "result": "(6.6%)"},
      {"measurement": "Nonfatal MI (def & prob), n/total (%)", "setting": "[7]", "result": "(6.2%)"},
      {"measurement": "Odds ratio pravastatin vs placebo", "setting": "ADAMTS13 hCV11571465, Nonfatal MI (Probable/Definite), 0 rare alleles", "result": 0.62},
      {"measurement": "Odds ratio pravastatin vs placebo", "setting": "ADAMTS13 hCV11571465, Nonfatal MI (Probable/Definite), 1 rare allele", "result": 0.88},
      {"measurement": "Odds ratio pravastatin vs placebo", "setting": "ADAMTS13 hCV11571465, Nonfatal MI (Probable/Definite), 2 rare alleles", "result": 0.38},
      {"measurement": "Odds ratio pravastatin vs placebo", "setting": "ADAMTS13 hCV11571465, Nonfatal MI (def & prob), 0 rare alleles", "result": 0.65},
      {"measurement": "Odds ratio pravastatin vs placebo", "setting": "ADAMTS13 hCV11571465, Nonfatal MI (def & prob), 1 rare allele", "result": 0.91},
      {"measurement": "Odds ratio pravastatin vs placebo", "setting": "ADAMTS13 hCV11571465, Nonfatal MI (def & prob), 2 rare alleles", "result": 0.37},
      {"measurement": "Fatal CHD/Definite Non-fatal MI, n/total (%)", "setting": "AGTR1 hCV3187716, 0 Rare Alleles, n/total 63/769", "result": "(8.2%)"},
      {"measurement": "Hosp. for Unstable Angina, n/total (%)", "setting": "AGTR1 hCV3187716, 0 Rare Alleles, n/total 120/769", "result": "(15.6%)"},
      {"measurement": "Total Coronary Heart Disease Events, n/total (%)", "setting": "AGTR1 hCV3187716, 0 Rare Alleles, n/total 227/769", "result": "(29.5%)"},
      {"measurement": "Fatal CHD/Definite Non-fatal MI, n/total (%)", "setting": "AGTR1 hCV3187716, 1 Rare Allele, n/total 72/625", "result": "(11.5%)"},
      {"measurement": "Hosp. for Unstable Angina, n/total (%)", "setting": "AGTR1 hCV3187716, 1 Rare Allele, n/total 103/625", "result": "(16.5%)"},
      {"measurement": "Total Coronary Heart Disease Events, n/total (%)", "setting": "AGTR1 hCV3187716, 1 Rare Allele, n/total 194/625", "result": "(31.0%)"},
      {"measurement": "Fatal CHD/Definite Non-fatal MI, n/total (%)", "setting": "AGTR1 hCV3187716, 2 Rare Alleles, n/total 5/120", "result": "(4.2%)"},
      {"measurement": "Hosp. for Unstable Angina, n/total (%)", "setting": "AGTR1 hCV3187716, 2 Rare Alleles, n/total 8/120", "result": "(6.7%)"},
      {"measurement": "Total Coronary Heart Disease Events, n/total (%)", "setting": "AGTR1 hCV3187716, 2 Rare Alleles, n/total 20/120", "result": "(16.7%)"},
      {"measurement": "Prava vs. Placebo Odds Ratio, 0 Rare Alleles", "setting": "[8]", "result": 0.63},
      {"measurement": "Prava vs. Placebo Odds Ratio, 1 Rare Alleles", "setting": "[8]", "result": 0.95},
      {"measurement": "Prava vs. Placebo Odds Ratio, 2 Rare Alleles", "setting": "[8]", "result": 0.24},
      {"measurement": "Prava vs. Placebo Odds Ratio, 0 Rare Alleles", "setting": "[9]", "result": 0.89},
      {"measurement": "Prava vs. Placebo Odds Ratio, 1 Rare Alleles", "setting": "[9]", "result": 0.90},
      {"measurement": "Prava vs. Placebo Odds Ratio, 2 Rare Alleles", "setting": "[9]", "result": 0.27},
      {"measurement": "Prava vs. Placebo Odds Ratio, 0 Rare Alleles", "setting": "[10]", "result": 0.80},
      {"measurement": "Prava vs. Placebo Odds Ratio, 1 Rare Alleles", "setting": "[10]", "result": 0.82},
      {"measurement": "Prava vs. Placebo Odds Ratio, 2 Rare Alleles", "setting": "[10]", "result": 0.38},
      {"measurement": "Nonfatal MI (Probable/Definite), n/total (%)", "setting": "APOE hCV905013, All Patients, 0 Rare Alleles", "result": "(8.4%)"},
      {"measurement": "Nonfatal MI (Probable/Definite), n/total (%)", "setting": "APOE hCV905013, All Patients, 1 Rare Allele", "result": "(10.4%)"},
      {"measurement": "Nonfatal MI (Probable/Definite), n/total (%)", "setting": "APOE hCV905013, All Patients, 2 Rare Alleles", "result": "(7.8%)"},
      {"measurement": "Odds ratio pravastatin vs placebo", "setting": "APOE hCV905013, Nonfatal MI (Probable/Definite), 0 rare alleles", "result": 0.51}
    ]}
  ]
}
